Source: patent publication US5232923A, “Catechol derivatives and pharmaceutical preparations containing same” (Mitsui Toatsu Chemicals, Incorporated, priority 1988, dated 1993)
Where two headings read alike, the source gives them in different places.

Key:
[1] = tested on: production and secretion of NGF in mouse L-M cells; assay: Promoting activity for the production and secretion of NGF in mouse L-M cells (ELISA of medium after 24 h); format: cell-based; conditions: for fold induction at 200 µM: Mus musculus, 24 h, read-out: NGF Increase Ratio; for NGF Concentration: 24 hours, mean of four determinations
Procedure: Promoting activity for the production and secretion of NGF in mouse L-M cells
The medium was cultured for 3 days at a temperature of 37° C. […] The sample of the derivative tested is contained in the medium at a prescribed concentration as illustrated in the Tables. […] Data are expressed as fold increase in NGF content of the medium over that cultivated in the absence of the derivative to be tested. […] Data are presented as the mean of four determinations. The results are illustrated in Tables 1-5.

[2] = tested on: production and secretion of NGF in mouse brain astroglial cells; assay: Promoting activity for the production and secretion of NGF in mouse brain astroglial cells (ELISA of medium after 24 h); format: cell-based; conditions: for NGF Concentration: 24 hours
Procedure: Promoting activity for the production and secretion of NGF in mouse brain astroglial cells
The experiment was performed by inducing astroglial cells from the mouse forebrain to a culture system according to the procedures of S. Furukawa et al. which is described in Biochem. Biophys. Res. Commun., 136, 57-63 (1986).
Forebrains of 8-days old mice were dissected out and cut into small pieces. The pieces were washed with calcium- and magnesium-free phosphate-bufferedsaline (hereinafter abbreviated as PBS), treated with 0.25% trypsin containing PBS at 37° C. for 30 minutes and triturated with a Pasteur pipet to give a suspension. Cells and cell clumps were recovered by centrifugation at 200 xg for 5 minutes. They were cultured in Dulbecco modified Eagle's medium (a product of Gibco Co. hereinafter abbreviated as DMEM) containing 10% fetal calf serum, 50 μ units/ml of penicillin, and 50 μg/ml of streptomycin, for 10 to 14 days with medium changes every 3 days. After completing confluency, the cells were dissociated by trypsin treatment and recultured in new culture flasks. This procedure was repeated further twice and more. The culture became a uniform cell cluster. The cell cluster for use in this invention can be stained not less than 97% in accordance with the PAP staining method (peroxidase/[…] staining method) using anti-human glial fibrillar acidic protein (GFAP) rabbit antiserum. The cells will hereinafter be referred to as astroglial cells.
Astroglial cells were innoculated in 24-well plates having a well surface area of 2.1 cm^2 (a product of Falcon Co.) at a cell density of about 3×10^4 cells/well and cultured for 3 days in DMEM medium supplemented with 10% of fetal calf serum. After completing confluency about ([…]), the medium was changed to DMEM medium (0.5 ml/well) supplemented with 0.5% of bovine serum albumin (fraction V) and cultured for 3 days. The culture was further continued with medium changes every 3 days. After cells were practically synchronized in the quiscent stage, the medium was changed to 0.5 ml of the same medium and containing a prescribed concentration of test sample as illustrated in the Tables. NGF in the medium after cultivating for 24 hours was determined by the ELISA as mentioned above. Data are expressed as fold increase in NGF content over that in the absence of the test sample. The lower detection limit of the ELISA is 0.25 pg/ml and the NGF content of control medium was normally 1-10 pg/0.5 ml/well. Data are presented as the mean of four determinations. The results are illustrated in Tables 1-5.

[3] = Table 1, L-M cells, sample concentration 0.2 mM, control 0.33
[4] = Table 1, L-M cells, sample concentration 0.2 mM, fold increase over control (1.00)
[5] = Mus musculus, 24 h, Table 3, sample concentration 0.4 mM, fold increase over control (1.00), read-out: NGF Increase Ratio
[6] = Table 3, sample concentration 0.4 mM, control 42.3
[7] = Table 2, L-M cells, sample concentration 0.2 mM, fold increase over control (1.00)
[8] = Table 2, L-M cells, sample concentration 0.2 mM, control 0.34

SMILES	NGF Concentration [1, 3] [ng/well]	fold induction at 200 µM [1, 7]	NGF Concentration [1, 8] [ng/well]	also measured
NCCc1ccc(O)c(O)c1 [Comparative compound, reference compound]	1.30	–	–	fold induction at 200 µM [1]: 3.94
CCC(=O)NCCc1ccc(O)c(O)c1 [Compound 2]	3.10	–	–	fold induction at 200 µM [1, 4]: 9.39
CC(=O)NCc1ccc(O)c(O)c1 [Compound 4]	2.60	–	–	fold induction at 200 µM [1, 4]: 7.88
CCC(=O)NCc1ccc(O)c(O)c1 [Compound 5]	2.75	–	–	fold induction at 200 µM [1, 4]: 8.33
CCCC(=O)NCc1ccc(O)c(O)c1 [Compound 6]	2.95	–	–	fold induction at 200 µM [1, 4]: 8.94
CCC(=O)NCCCc1ccc(O)c(O)c1 [Compound 8]	2.90	–	–	fold induction at 200 µM [1, 4]: 8.79
CCCC(=O)NCCCc1ccc(O)c(O)c1 [Compound 9]	2.75	–	–	fold induction at 200 µM [1, 4]: 8.33
CCC(=O)N(C)CCc1ccc(O)c(O)c1 [Compound 11]	3.32	–	–	fold induction at 200 µM [1, 4]: 10.1
CCC(=O)NCCc1ccc(OC(C)=O)c(OC(C)=O)c1 [Compound 14]	3.49	–	–	fold induction at 200 µM [1, 4]: 10.6
CC(=O)NCc1ccc(OC(C)=O)c(OC(C)=O)c1 [Compound 16]	2.72	–	–	fold induction at 200 µM [1, 4]: 8.24
CC(=O)Oc1ccc(CCN(C)C(C)=O)cc1OC(C)=O [Compound 18]	3.95	–	–	fold induction at 200 µM [1, 4]: 12
CCCNCCc1ccc(O)c(O)c1 [Compound 20]	3.62	–	–	fold induction at 200 µM [1]: 11
CNCc1ccc(O)c(O)c1 [Compound 22]	2.97	–	–	fold induction at 200 µM [1, 4]: 9
CCNCc1ccc(O)c(O)c1 [Compound 23]	3.08	–	–	fold induction at 200 µM [1, 4]: 9.33
CCCNCc1ccc(O)c(O)c1 [Compound 24]	2.94	–	–	fold induction at 200 µM [1, 4]: 8.91
CCCCNCc1ccc(O)c(O)c1 [Compound 25]	2.91	–	–	fold induction at 200 µM [1, 4]: 8.82
CCNCCCc1ccc(O)c(O)c1 [Compound 27]	2.89	–	–	fold induction at 200 µM [1, 4]: 8.76
CCCNCCCc1ccc(O)c(O)c1 [Compound 28]	2.79	–	–	fold induction at 200 µM [1, 4]: 8.45
CC(=O)Oc1ccc(CCN(C)C)cc1OC(C)=O [Compound 30]	3.80	–	–	fold induction at 200 µM [1]: 11.5
CCN(C)CCc1ccc(OC(C)=O)c(OC(C)=O)c1 [Compound 31]	3.76	–	–	fold induction at 200 µM [1]: 11.4
CCCCN(C)CCc1ccc(O)c(O)c1 [Compound 32]	–	–	–	fold induction at 400 µM [2, 5]: 4.82; NGF Concentration [2, 6]: 203.8 ng/well
CCCCN(C)CCc1ccc(OC(C)=O)c(OC(C)=O)c1 [Compound 33]	–	–	–	fold induction at 400 µM [2, 5]: 4.74; NGF Concentration [2, 6]: 200.6 ng/well
COC(=O)CCc1ccc(O)c(O)c1 [Compound 34]	–	5.79	1.97	–
CCCOC(=O)CCc1ccc(O)c(O)c1 [Compound 36]	–	5.53	1.88	–
COC(=O)Cc1ccc(O)c(O)c1 [Compound 38]	–	4.79	1.63	–
CCCOC(=O)Cc1ccc(O)c(O)c1 [Compound 40]	–	5.41	1.84	–
CCCCOC(=O)Cc1ccc(O)c(O)c1 [Compound 41]	–	5.26	1.79	–

SMILES	NGF Concentration [1, 3] [ng/well]	fold induction at 200 µM [1, 7]	NGF Concentration [1, 8] [ng/well]	also measured
COC(=O)CCCc1ccc(O)c(O)c1 [Compound 42]	–	5.32	1.81	–
CCCOC(=O)CCCc1ccc(O)c(O)c1 [Compound 44]	–	5.62	1.91	–
CCCCOC(=O)CCCc1ccc(O)c(O)c1 [Compound 45]	–	5.41	1.84	–
COC(=O)CCc1ccc(OC(C)=O)c(OC(C)=O)c1 [Compound 46]	–	5.91	2.01	–
CCCOC(=O)CCc1ccc(OC(C)=O)c(OC(C)=O)c1 [Compound 48]	–	6.26	2.13	–
COC(=O)Cc1ccc(OC(C)=O)c(OC(C)=O)c1 [Compound 50]	–	5.09	1.73	–
CCCOC(=O)Cc1ccc(OC(C)=O)c(OC(C)=O)c1 [Compound 52]	–	5.53	1.88	–
CCCCOC(=O)Cc1ccc(OC(C)=O)c(OC(C)=O)c1 [Compound 53]	–	4.79	1.63	–
COC(=O)CCCc1ccc(OC(C)=O)c(OC(C)=O)c1 [Compound 54]	–	5.53	1.88	–
CCCOC(=O)CCCc1ccc(OC(C)=O)c(OC(C)=O)c1 [Compound 56]	–	5.09	1.73	–
CCCCOC(=O)CCCc1ccc(OC(C)=O)c(OC(C)=O)c1 [Compound 57]	–	5.32	1.81	–
CNC(=O)CCc1ccc(O)c(O)c1 [Compound 59, N-Methyl-3,4-dihydroxyphenylpropionamide]	–	5.62	1.91	–
CCCNC(=O)CCc1ccc(O)c(O)c1 [Compound 61]	–	5.91	2.01	–
NC(=O)Cc1ccc(O)c(O)c1 [Compound 62]	–	4.79	1.63	–
CNC(=O)Cc1ccc(O)c(O)c1 [Compound 63]	–	5.82	1.98	–
CCCNC(=O)Cc1ccc(O)c(O)c1 [Compound 65]	–	5.21	1.77	–
CCCCNC(=O)Cc1ccc(O)c(O)c1 [Compound 66]	–	5.85	1.99	–
NC(=O)CCCc1ccc(O)c(O)c1 [Compound 67]	–	4.97	1.69	–
CNC(=O)CCCc1ccc(O)c(O)c1 [Compound 68]	–	5.09	1.73	–
CCCNC(=O)CCCc1ccc(O)c(O)c1 [Compound 70]	–	5.38	1.83	–
CCCCNC(=O)CCCc1ccc(O)c(O)c1 [Compound 71]	–	5.71	1.83	–
CC(=O)Oc1ccc(CC(N)=O)cc1OC(C)=O [Compound 75]	–	5.53	2.03	–
CCCCNC(=O)Cc1ccc(OC(C)=O)c(OC(C)=O)c1 [Compound 77]	–	5.26	1.86	–
CC(=O)Oc1ccc(CCCC(N)=O)cc1OC(C)=O [Compound 78]	–	4.94	1.79	–
CCCCNC(=O)CCCc1ccc(OC(C)=O)c(OC(C)=O)c1 [Compound 80]	–	5.74	1.95	–
CCCCNC(=O)CCc1ccc(O)c(O)c1 [Compound 82]	–	–	–	fold induction at 200 µM ([2]; Mus musculus, 24 h, Table 4, sample concentration 0.2 mM, fold increase over control, read-out: NGF Increase Ratio): 8.35; NGF Concentration ([2]; Table 4, sample concentration 0.2 mM): 360.9 ng/well
CCCCNC(=O)CCc1ccc(OC(C)=O)c(OC(C)=O)c1 [Compound 83]	–	–	–	fold induction at 400 µM ([2]; Mus musculus, 24 h, Table 4, sample concentration 0.4 mM, fold increase over control, read-out: NGF Increase Ratio): 8.82; NGF Concentration ([2]; Table 4, sample concentration 0.4 mM): 381.2 ng/well
